Activity calls are given as the source filed them.
Tests used:
[1] = molecular target: T1, Replicative DNA helicase DnaB (Mycobacterium tuberculosis, UniProt P9WMR3); experiment: DnaB intein splicing inhibitors, dose response, biochemical, cell-free fluorescence (AID 449749); format: functional
T1 sequence (P9WMR3 whole entry): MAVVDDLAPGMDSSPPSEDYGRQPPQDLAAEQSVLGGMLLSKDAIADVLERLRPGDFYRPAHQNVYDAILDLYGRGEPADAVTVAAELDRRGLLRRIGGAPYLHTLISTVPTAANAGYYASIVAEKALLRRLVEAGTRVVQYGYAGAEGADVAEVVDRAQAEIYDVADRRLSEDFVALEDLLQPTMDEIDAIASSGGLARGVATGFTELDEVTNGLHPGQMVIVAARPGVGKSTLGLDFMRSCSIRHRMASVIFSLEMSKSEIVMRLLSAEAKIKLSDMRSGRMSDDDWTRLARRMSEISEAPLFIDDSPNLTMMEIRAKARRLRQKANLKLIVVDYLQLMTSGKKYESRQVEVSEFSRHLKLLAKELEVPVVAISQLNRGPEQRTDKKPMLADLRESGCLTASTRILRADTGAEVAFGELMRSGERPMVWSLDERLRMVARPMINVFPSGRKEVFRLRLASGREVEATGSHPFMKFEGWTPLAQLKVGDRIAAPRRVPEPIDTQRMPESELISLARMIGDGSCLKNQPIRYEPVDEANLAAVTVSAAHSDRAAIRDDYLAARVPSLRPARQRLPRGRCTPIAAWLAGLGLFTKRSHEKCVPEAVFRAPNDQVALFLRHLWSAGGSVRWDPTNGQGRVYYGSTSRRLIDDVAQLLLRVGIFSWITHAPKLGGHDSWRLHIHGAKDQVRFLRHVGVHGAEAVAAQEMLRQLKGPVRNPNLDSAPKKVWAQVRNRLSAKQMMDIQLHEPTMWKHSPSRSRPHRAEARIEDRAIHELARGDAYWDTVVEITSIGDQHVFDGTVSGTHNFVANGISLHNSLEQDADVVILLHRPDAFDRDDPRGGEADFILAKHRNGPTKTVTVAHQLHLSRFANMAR

[2] = molecular target: T2, Sentrin-specific protease 6 (Homo sapiens, UniProt Q9GZR1); format: functional;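 also: Luminescence-based dose-response confirmatory assay of SENP6 inhibition, following up an ultra-high-throughput screen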
T2 sequence (Q9GZR1 whole entry): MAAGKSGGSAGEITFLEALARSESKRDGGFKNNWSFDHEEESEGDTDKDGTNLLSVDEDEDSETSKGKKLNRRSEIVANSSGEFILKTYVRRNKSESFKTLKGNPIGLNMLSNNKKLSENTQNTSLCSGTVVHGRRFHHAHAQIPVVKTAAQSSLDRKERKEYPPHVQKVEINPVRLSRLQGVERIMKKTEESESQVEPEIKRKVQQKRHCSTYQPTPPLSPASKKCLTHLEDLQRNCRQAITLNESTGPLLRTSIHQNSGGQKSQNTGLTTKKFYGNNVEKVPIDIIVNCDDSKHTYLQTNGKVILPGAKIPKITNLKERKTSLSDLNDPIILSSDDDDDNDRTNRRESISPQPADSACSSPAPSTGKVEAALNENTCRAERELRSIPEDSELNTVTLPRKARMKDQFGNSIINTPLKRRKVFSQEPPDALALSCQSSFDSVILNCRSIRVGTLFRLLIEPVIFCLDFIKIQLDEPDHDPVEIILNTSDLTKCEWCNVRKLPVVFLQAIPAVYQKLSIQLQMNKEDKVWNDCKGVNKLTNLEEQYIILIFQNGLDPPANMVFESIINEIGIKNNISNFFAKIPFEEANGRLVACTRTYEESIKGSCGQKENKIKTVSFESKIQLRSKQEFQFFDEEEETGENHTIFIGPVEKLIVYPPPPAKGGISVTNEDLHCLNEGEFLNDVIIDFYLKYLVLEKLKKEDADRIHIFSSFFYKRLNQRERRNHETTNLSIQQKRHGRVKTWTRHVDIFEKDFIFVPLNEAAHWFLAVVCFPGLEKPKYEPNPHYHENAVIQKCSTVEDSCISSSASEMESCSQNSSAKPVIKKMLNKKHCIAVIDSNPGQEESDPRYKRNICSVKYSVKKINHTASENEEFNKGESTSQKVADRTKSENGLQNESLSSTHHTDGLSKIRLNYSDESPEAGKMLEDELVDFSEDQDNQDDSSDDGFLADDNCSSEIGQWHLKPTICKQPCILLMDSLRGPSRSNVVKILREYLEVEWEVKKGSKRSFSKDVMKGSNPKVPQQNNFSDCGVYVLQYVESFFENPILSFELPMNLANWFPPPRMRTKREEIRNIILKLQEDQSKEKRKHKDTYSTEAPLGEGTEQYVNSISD

[3] = molecular target: Fibroblast growth factor receptor 3 (Homo sapiens, UniProt P22607); format: functional
Fibroblast growth factor receptor 3, sequence (P22607 whole entry): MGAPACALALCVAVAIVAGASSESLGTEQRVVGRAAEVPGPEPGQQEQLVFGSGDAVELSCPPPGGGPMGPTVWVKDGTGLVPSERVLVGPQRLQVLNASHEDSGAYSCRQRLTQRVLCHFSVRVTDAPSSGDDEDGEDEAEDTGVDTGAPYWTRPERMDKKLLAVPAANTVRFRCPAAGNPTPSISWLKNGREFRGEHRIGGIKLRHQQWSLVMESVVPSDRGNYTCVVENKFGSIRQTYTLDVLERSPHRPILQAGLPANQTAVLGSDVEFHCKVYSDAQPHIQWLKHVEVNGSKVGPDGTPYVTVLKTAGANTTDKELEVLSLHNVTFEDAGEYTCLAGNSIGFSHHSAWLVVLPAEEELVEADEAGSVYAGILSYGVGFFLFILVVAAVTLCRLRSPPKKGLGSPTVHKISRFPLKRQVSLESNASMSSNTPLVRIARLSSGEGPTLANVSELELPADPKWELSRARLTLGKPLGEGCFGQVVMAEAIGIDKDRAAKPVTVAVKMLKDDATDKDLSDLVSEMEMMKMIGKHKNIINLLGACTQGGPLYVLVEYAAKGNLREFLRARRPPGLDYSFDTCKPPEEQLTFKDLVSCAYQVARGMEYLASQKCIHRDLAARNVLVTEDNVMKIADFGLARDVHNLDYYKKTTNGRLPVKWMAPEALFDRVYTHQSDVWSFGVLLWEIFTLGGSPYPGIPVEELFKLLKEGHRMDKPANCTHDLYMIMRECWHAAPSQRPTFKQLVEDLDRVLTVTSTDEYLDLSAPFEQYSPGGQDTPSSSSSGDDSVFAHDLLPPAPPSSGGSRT

[4] = molecular target: Platelet-derived growth factor receptor beta (Homo sapiens, UniProt P09619); format: functional;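 also: value comes from a kinome panel, with PDGFRB tested as one panel member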
Platelet-derived growth factor receptor beta, sequence (P09619 whole entry): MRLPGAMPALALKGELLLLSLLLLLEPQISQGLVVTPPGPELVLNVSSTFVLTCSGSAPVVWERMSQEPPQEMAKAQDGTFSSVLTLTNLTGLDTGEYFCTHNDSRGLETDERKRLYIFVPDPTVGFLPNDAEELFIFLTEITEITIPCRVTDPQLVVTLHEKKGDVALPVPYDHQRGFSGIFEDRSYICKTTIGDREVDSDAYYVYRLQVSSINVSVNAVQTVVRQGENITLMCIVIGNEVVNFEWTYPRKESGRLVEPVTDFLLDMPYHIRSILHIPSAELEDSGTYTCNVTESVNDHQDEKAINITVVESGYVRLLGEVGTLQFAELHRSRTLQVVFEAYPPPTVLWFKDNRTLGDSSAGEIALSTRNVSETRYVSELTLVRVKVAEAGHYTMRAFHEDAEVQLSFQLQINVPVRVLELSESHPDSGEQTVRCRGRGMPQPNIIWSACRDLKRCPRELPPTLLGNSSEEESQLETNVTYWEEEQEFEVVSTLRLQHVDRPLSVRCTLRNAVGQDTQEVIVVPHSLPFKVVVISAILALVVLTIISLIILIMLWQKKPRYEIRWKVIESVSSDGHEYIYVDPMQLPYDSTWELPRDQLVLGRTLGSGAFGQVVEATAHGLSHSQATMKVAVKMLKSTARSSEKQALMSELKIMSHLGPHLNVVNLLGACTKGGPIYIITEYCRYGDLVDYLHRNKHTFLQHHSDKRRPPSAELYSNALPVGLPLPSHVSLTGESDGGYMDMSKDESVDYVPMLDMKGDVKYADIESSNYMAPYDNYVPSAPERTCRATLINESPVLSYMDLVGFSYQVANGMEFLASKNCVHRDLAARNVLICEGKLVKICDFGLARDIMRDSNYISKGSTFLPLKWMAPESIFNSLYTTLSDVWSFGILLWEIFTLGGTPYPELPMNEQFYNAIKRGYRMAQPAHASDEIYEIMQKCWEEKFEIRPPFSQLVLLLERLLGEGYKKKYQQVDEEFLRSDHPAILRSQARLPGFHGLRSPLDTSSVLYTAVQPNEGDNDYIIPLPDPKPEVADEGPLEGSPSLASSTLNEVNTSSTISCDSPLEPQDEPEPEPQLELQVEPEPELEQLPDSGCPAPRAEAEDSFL

[5] = molecular target: Calcium/calmodulin-dependent protein kinase type II subunit gamma (Homo sapiens, UniProt Q13555); format: functional
Calcium/calmodulin-dependent protein kinase type II subunit gamma, sequence (Q13555 whole entry): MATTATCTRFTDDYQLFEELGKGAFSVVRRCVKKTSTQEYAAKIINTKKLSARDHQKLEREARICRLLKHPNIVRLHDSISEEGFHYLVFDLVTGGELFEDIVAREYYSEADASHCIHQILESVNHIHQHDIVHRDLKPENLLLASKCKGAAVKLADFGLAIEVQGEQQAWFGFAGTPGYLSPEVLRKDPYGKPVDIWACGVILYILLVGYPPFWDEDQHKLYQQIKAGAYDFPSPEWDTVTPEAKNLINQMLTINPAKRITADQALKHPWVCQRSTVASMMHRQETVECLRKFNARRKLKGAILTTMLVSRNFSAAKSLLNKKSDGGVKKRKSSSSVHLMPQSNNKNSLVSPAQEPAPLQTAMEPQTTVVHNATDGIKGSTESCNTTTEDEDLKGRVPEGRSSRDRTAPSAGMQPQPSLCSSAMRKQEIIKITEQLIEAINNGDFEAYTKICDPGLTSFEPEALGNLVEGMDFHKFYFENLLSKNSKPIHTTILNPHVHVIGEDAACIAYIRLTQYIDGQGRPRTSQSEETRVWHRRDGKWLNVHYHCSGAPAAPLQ

[6] = molecular target: RAC-gamma serine/threonine-protein kinase (Homo sapiens, UniProt Q9Y243); format: functional
[7] = molecular target: Calcium/calmodulin-dependent protein kinase type 1 (Homo sapiens, UniProt Q14012); format: functional
Calcium/calmodulin-dependent protein kinase type 1, sequence (Q14012 whole entry): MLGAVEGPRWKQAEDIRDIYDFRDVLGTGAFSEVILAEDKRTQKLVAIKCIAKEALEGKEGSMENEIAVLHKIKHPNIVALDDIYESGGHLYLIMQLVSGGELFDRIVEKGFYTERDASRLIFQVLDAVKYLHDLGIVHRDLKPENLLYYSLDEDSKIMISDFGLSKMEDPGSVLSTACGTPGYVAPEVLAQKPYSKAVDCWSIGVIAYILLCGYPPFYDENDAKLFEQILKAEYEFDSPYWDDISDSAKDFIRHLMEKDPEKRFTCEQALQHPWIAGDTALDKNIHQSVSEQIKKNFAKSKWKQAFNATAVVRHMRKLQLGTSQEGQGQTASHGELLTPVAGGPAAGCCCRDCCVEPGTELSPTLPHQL

[8] = molecular target: Serine/threonine-protein kinase Nek4 (Homo sapiens, UniProt P51957); format: functional
Serine/threonine-protein kinase Nek4, sequence (P51957 whole entry): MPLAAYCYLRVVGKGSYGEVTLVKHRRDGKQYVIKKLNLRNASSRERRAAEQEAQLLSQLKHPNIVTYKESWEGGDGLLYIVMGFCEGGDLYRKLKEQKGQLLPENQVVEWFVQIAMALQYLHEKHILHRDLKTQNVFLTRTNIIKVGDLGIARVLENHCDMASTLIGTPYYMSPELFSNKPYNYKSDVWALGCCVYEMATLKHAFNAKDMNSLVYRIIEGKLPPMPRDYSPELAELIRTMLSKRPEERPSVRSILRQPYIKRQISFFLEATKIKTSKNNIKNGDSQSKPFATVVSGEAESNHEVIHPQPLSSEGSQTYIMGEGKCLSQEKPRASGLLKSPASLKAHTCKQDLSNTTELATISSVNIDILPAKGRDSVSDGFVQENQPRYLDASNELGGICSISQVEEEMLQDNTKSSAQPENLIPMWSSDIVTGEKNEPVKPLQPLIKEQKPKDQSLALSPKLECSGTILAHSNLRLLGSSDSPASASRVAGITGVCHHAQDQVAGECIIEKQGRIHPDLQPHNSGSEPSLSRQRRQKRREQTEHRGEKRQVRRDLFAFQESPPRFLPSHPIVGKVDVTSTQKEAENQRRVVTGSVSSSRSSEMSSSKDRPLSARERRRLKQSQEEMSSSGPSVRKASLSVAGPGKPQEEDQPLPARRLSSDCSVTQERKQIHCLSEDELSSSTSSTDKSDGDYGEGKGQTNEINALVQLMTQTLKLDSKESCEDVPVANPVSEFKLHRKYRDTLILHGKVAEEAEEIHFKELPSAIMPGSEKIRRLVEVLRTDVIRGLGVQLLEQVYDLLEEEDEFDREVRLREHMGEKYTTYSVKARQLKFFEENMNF

[9] = molecular target: Calcium/calmodulin-dependent protein kinase type II subunit beta (Homo sapiens, UniProt Q13554); format: functional
Calcium/calmodulin-dependent protein kinase type II subunit beta, sequence (Q13554 whole entry): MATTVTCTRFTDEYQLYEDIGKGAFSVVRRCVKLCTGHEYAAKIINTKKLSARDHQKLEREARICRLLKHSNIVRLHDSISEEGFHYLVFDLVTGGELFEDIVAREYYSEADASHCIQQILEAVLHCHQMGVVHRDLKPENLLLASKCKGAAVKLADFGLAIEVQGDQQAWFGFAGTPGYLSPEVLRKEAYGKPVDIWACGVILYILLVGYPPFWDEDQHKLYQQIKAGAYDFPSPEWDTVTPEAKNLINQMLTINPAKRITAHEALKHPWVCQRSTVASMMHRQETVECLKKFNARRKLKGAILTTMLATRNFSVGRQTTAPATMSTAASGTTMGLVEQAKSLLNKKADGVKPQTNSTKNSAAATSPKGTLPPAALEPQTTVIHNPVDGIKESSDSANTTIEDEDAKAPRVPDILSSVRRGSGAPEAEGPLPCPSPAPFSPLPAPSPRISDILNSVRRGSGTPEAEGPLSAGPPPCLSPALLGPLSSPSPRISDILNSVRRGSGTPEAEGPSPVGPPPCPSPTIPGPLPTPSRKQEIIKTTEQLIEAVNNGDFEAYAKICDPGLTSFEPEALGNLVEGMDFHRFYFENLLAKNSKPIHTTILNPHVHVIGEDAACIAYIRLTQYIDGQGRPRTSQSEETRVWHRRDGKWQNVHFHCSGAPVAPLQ

[10] = molecular target: Calcium/calmodulin-dependent protein kinase type II subunit delta (Homo sapiens, UniProt Q13557); format: functional
Calcium/calmodulin-dependent protein kinase type II subunit delta, sequence (Q13557 whole entry): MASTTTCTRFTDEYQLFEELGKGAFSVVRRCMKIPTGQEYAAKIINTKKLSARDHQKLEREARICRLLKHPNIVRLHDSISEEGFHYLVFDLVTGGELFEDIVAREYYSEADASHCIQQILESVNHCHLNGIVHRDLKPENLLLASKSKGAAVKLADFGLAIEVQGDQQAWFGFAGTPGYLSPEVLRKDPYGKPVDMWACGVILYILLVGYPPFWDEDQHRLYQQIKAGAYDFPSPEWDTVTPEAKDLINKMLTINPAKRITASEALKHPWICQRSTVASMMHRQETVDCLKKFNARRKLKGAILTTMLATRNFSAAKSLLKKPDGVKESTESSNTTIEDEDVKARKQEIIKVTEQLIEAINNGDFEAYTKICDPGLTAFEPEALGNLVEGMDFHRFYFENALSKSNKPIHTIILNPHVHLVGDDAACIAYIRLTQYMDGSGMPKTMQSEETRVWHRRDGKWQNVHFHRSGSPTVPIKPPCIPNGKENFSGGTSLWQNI

[11] = molecular target: Serine/threonine-protein kinase 17A (Homo sapiens, UniProt Q9UEE5); format: functional
[12] = molecular target: MAP kinase-activated protein kinase 2 (Homo sapiens, UniProt P49137); format: functional;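 also: measured as one member of a kinome-wide kinase panel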
Genome polyprotein = Genome polyprotein (dengue virus type 2, UniProt P29990); experiment: Dengue-2 NS5 methyltransferase inhibitors, primary screen, biochemical, confirmation dose response (AID 588689); format: functional
[13] = system: Streptococcus sp. 'group A'; experiment: growth inhibition of control SK(-) GAS strain, dose response, counter-screen for streptokinase expression inhibitor project, luminescence, kanamycin, BacTiterGlo, confirmation (AID 1900); format: functional, organism-based

Compound | AC50 [1] | IC50 [2] | Ki [3] | Ki [4] | Ki [5] | pKi [5] | Ki [6] | Ki [7] | Ki [8] | Ki [9] | pKi [9] | Ki [10] | pKi [10] | Ki [11] | Ki [12] | IC50 (Genome polyprotein) | EC50 [13]
Cc1ccc(NC2=C(NCCO)C(=O)c3ccccc3C2=O)cc1 | 40.3 µM (active) | 6.66 µM (active) | – | – | – | – | – | – | – | – | – | – | – | – | – | – | –
CN1CCC(c2c(O)cc(O)c3c(=O)cc(-c4ccccc4Cl)oc23)C(O)C1 (stereo not drawn) | – | – | > 2 µM (inactive) | > 2 µM (inactive) | 1 µM (active) | 6 | > 10 µM (inactive) | > 3.16 µM (inactive) | > 6.31 µM (inactive) | 5.01 µM (active) | 5.3 | 2 µM (active) | 5.7 | > 3.98 µM (inactive) | > 7.94 µM (inactive) | – | –
CC(/C=C1\SC(=S)N(NS(=O)(=O)c2ccc(C)cc2)C1=O)=C\c1ccccc1 | – | 3.12 µM (active) | – | – | – | – | – | – | – | – | – | – | – | – | – | 27.1 µM (active) | 1.41 µM (active)
